For 21 compounds, EC50 results are on record in patent US9593107B2, “Dihydroquinoline-2-one derivatives” (Hoffmann-La Roche Inc., priority 2014, dated 2017).

For one assay, the target named is T1, human CYP11B1 (Homo sapiens, UniProt P15538).
T1 construct: expressed in transfected cells
T1 sequence (P15538 25-503): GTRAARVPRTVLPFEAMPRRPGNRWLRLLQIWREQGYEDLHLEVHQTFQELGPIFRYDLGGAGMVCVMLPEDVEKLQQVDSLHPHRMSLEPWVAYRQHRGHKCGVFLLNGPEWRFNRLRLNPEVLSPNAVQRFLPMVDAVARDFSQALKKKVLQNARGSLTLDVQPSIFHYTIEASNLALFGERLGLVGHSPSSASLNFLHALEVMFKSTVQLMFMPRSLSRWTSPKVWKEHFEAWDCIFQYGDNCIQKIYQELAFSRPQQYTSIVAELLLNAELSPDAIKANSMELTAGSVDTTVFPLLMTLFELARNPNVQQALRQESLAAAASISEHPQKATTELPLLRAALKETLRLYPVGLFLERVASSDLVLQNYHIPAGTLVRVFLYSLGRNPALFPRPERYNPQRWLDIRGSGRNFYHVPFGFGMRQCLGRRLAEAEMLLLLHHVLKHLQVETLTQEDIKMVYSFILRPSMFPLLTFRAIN
The experiment in a line: G-402 cellular enzyme assay, human CYP11B1 (cortisol release, HTRF). As to conditions: G-402 cells expressing human CYP11B1; 1 μM Deoxycortisol. Format: cell-based. The text has this: (§1) Herein we identified the use of the G-402 cell line as a host cell to ectopically express (transiently or stably) enzymes of the CYP11 family. Specifically we developed stable G-402 cells expressing ectopically human CYP11B1, human CYP11B2, human CYP11A1, cynmolgus CYP11B1 or cynomolgus CYP11B2 enzyme activity. Importantly the identified cell line G-402 expresses co-factors (adrenodoxin and adrenodoxin reductase) important for the activity of the CYP11 family and no relevant enzyme activity of the CYP11 family (in comparison to H295R cells) was detected in these cells. Therefore the G-402 cell line is uniquely suited as a host cell for the ectopic expression of enzymes from the CYP11 family.
(§2) The expression plasmids contains the ORF for either human/cyno CYP11B1 or CYP11B2 under the control of a suitable promoter (CMV-promoter) and a suitable resistance marker (neomycin). Using standard techniques the expression plasmid is transfected into G-402 cells and these cells are then selected for expressing the given resistance markers. Individual cell-clones are then selected and assessed for displaying the desired enzymatic activity using 11-Deoxycorticosterone (Cyp11B2) or 11-Deoxycortisol (Cyp11B1) as a substrate.
(§3) G-402 cells expressing CYP11 constructs were established as described above and maintained in McCoy's 5a Medium Modified, ATCC Catalog No. 30-2007 containing 10% FCS and 400 μg/ml G418 (Geneticin) at 37° C. under an atmosphere of 5% CO2/95% air.
(§4) Cellular enzyme assays were performed in DMEM/F12 medium containing 2.5% charcoal treated FCS and appropriate concentration of substrate (0.3-10 uM 11-Deoxycorticosterone, 11-Deoxycortisol or Corticosterone). For assaying enzymatic activity, cells were plated onto 96 well plates and incubated for 16 h. An aliquot of the supernatant is then transferred and analyzed for the concentration of the expected product (Aldosterone for CYP11B2; Cortisol for CYP11B1). The concentrations of these steroids can be determined using HTRF assays from CisBio analyzing either Aldosterone or Cortisol.
(§5) Inhibition of the release of produced steroids can be used as a measure of the respective enzyme inhibition by test compounds added during the cellular enzyme assay. The dose dependent inhibition of enzymatic activity by a compound is calculated by means of plotting added inhibitor concentrations (x-axes) vs. measured steroid/product level (y-axes). The inhibition is then calculated by fitting the following 4-parameter sigmoidal function (Morgan-Mercer-Flodin (MMF) model) to the raw data points using the least squares method:
(§6) [formula] wherein, A is the maximum y value, B is the EC50 factor determined using XLFit, C is the minimum y value and D is the slope value.
(§7) EC50 values for compounds claimed herein were tested with the G402-based assay system described. Cyp11B2 enzyme activity was tested in presence of 1 μM Deoxycorticosterone and variable amounts of inhibitors; Cyp11B1 enzyme activity was tested in presence of 1 μM Deoxycortisol and variable amounts of inhibitors.

A further assay deals with T2, human CYP11B2 (Homo sapiens, UniProt P19099).
T2 construct: expressed in transfected cells
T2 sequence (P19099 25-503): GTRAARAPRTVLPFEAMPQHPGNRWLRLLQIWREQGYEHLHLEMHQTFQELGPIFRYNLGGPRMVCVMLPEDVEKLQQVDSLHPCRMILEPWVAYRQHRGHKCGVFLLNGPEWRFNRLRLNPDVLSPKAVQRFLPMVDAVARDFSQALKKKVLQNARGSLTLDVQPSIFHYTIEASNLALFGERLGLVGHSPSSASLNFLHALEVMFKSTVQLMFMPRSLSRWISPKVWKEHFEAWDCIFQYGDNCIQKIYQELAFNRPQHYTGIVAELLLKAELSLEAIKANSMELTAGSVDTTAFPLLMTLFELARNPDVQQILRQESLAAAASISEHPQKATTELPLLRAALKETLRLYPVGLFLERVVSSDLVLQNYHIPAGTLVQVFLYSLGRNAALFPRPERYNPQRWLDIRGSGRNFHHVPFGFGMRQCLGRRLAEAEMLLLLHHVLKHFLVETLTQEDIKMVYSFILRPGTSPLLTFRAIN
The experiment in a line: G-402 cellular enzyme assay, human CYP11B2 (aldosterone release, HTRF). As to conditions: G-402 cells expressing human CYP11B2; 1 μM Deoxycorticosterone. The assay is classed as cell-based.
Description: as §1, §2, §3, §4, §5, §6, §7

As for `CN1C(=O)CCc2cc(-c3cncc(Cn4c(=O)sc5ccccc54)c3)ccc21` [Example 1, 1-Methyl-6-[5-(2-oxo-benzothiazol-3-ylmethyl)-pyridin-3-yl]-3,4-dihydro-1H-quinolin-2-one], the EC50 was 177 nM at human CYP11B1 and 1.4 nM at human CYP11B2.
The matching figures for `CN1C(=O)CCc2cc(-c3cncc(Cn4cc(F)ccc4=O)c3)ccc21` [Example 2, 6-[5-(5-Fluoro-2-oxo-2H-pyridin-1-ylmethyl)-pyridin-3-yl]-1-methyl-3,4-dihydro-1H-quinolin-2-one]: 935 nM and 18.5 nM.
The matching figures for `CN1C(=O)CCc2cc(-c3cncc(Cn4ccsc4=O)c3)ccc21` [Example 3, 1-Methyl-6-[5-(2-oxo-thiazol-3-ylmethyl)-pyridin-3-yl]-3,4-dihydro-1H-quinolin-2-one]: 275 nM and 3.6 nM.
Taken in the same sequence, the figures for `CN1C(=O)CCc2cc(-c3cncc(Cn4cccc(Cl)c4=O)c3)ccc21` [Example 4, 6-[5-(3-Chloro-2-oxo-2H-pyridin-1-ylmethyl)-pyridin-3-yl]-1-methyl-3,4-dihydro-1H-quinolin-2-one] were 1220 nM and 29.3 nM.
With `CN1C(=O)CCc2cc(-c3cncc(Cn4cc(C(F)(F)F)cc(F)c4=O)c3)ccc21` [Example 5, 6-[5-(3-Fluoro-2-oxo-5-trifluoromethyl-2H-pyridin-1-ylmethyl)-pyridin-3-yl]-1-methyl-3,4-dihydro-1H-quinolin-2-one], the 50% effective concentration (EC50) on human CYP11B1 amounted to 1080 nM; on human CYP11B2 it was 13.2 nM.
Taken in the same sequence, the figures for `CN1C(=O)CCc2cc(-c3cncc(Cn4cccc(F)c4=O)c3)ccc21` [Example 6, 6-[5-(3-Fluoro-2-oxo-2H-pyridin-1-ylmethyl)-pyridin-3-yl]-1-methyl-3,4-dihydro-1H-quinolin-2-one] were 4070 nM and 32.7 nM.
The matching figures for `Cc1cccc(=O)n1Cc1cncc(-c2ccc3c(c2)CCC(=O)N3C)c1` [Example 7, 1-Methyl-6-[5-(6-methyl-2-oxo-2H-pyridin-1-ylmethyl)-pyridin-3-yl]-3,4-dihydro-1H-quinolin-2-one]: 820 nM and 8.8 nM.
Taken in the same sequence, the figures for `Cc1ccn(Cc2cncc(-c3ccc4c(c3)CCC(=O)N4C)c2)c(=O)c1` [Example 8, 1-Methyl-6-[5-(4-methyl-2-oxo-2H-pyridin-1-ylmethyl)-pyridin-3-yl]-3,4-dihydro-1H-quinolin-2-one] were 1050 nM and 27 nM.
For `CN1C(=O)CCc2cc(-c3cncc(Cn4cc(Cl)ccc4=O)c3)ccc21` [Example 9, 6-[5-(5-Chloro-2-oxo-2H-pyridin-1-ylmethyl)-pyridin-3-yl]-1-methyl-3,4-dihydro-1H-quinolin-2-one], the EC50 on human CYP11B1 was 516 nM; on human CYP11B2, 10.5 nM.
In the case of `CN1C(=O)CCc2cc(-c3cncc(Cn4ccccc4=O)c3)ccc21` [Example 10, 1-Methyl-6-[5-(2-oxo-2H-pyridin-1-ylmethyl)-pyridin-3-yl]-3,4-dihydro-1H-quinolin-2-one], the EC50 on human CYP11B1 was 1230 nM; on human CYP11B2, 29 nM.
Taken in the same sequence, the figures for `CN1C(=O)CCc2cc(-c3cncc(Cn4cccc(C(F)(F)F)c4=O)c3)ccc21` [Example 11, 1-Methyl-6-[5-(2-oxo-3-trifluoromethyl-2H-pyridin-1-ylmethyl)-pyridin-3-yl]-3,4-dihydro-1H-quinolin-2-one] were 738 nM and 18.1 nM.
Taken in the same sequence, the figures for `Cc1nccc(=O)n1Cc1cncc(-c2ccc3c(c2)CCC(=O)N3C)c1` [Example 12, 1-Methyl-6-[5-(2-methyl-6-oxo-6H-pyrimidin-1-ylmethyl)-pyridin-3-yl]-3,4-dihydro-1H-quinolin-2-one] were 256 nM and 7.4 nM.
Taken in the same sequence, the figures for `CN1C(=O)CCc2cc(-c3cncc(Cn4cccnc4=O)c3)ccc21` [Example 13, 1-Methyl-6-[5-(2-oxo-2H-pyrimidin-1-ylmethyl)-pyridin-3-yl]-3,4-dihydro-1H-quinolin-2-one] were 5570 nM and 89.2 nM.
Regarding `CN1C(=O)CCc2cc(-c3cncc(Cn4ccc(C#N)cc4=O)c3)ccc21` [Example 14, 1-[5-(1-Methyl-2-oxo-1,2,3,4-tetrahydro-quinolin-6-yl)-pyridin-3-ylmethyl]-2-oxo-1,2-dihydro-pyridine-4-carbonitrile], the EC50 at human CYP11B1 was determined as 356 nM; at human CYP11B2 it was 8.8 nM.
The matching figures for `CN1C(=O)CCc2cc(-c3cncc(Cn4cc(C(F)(F)F)ccc4=O)c3)ccc21` [Example 15, 1-Methyl-6-[5-(2-oxo-5-trifluoromethyl-2H-pyridin-1-ylmethyl)-pyridin-3-yl]-3,4-dihydro-1H-quinolin-2-one]: 680 nM and 19.6 nM.
The matching figures for `CN1C(=O)CCc2cc(-c3cncc(Cn4cc(C#N)ccc4=O)c3)ccc21` [Example 16, 1-[5-(1-Methyl-2-oxo-1,2,3,4-tetrahydro-quinolin-6-yl)-pyridin-3-ylmethyl]-6-oxo-1,6-dihydro-pyridine-3-carbonitrile]: 2420 nM and 67.3 nM.
The matching figures for `CN1C(=O)CCc2cc(-c3cncc(Cn4c(Cl)cccc4=O)c3)ccc21` [Example 17, 6-[5-(6-Chloro-2-oxo-2H-pyridin-1-ylmethyl)-pyridin-3-yl]-1-methyl-3,4-dihydro-1H-quinolin-2-one]: 363 nM and 2.2 nM.
In the case of `CN1C(=O)CCc2cc(-c3cncc(Cn4c(F)cccc4=O)c3)ccc21` [Example 18, 6-[5-(6-Fluoro-2-oxo-2H-pyridin-1-ylmethyl)-pyridin-3-yl]-1-methyl-3,4-dihydro-1H-quinolin-2-one], the EC50 at human CYP11B1 is 172 nM; at human CYP11B2 it was 4.1 nM.
The matching figures for `CN1C(=O)CCc2cc(-c3cncc(Cn4cccc(F)c4=O)c3)c(F)cc21` [Example 19, 7-Fluoro-6-[5-(3-fluoro-2-oxo-2H-pyridin-1-ylmethyl)-pyridin-3-yl]-1-methyl-3,4-dihydro-1H-quinolin-2-one]: 23.8 nM and 0.5 nM.
Taken in the same sequence, the figures for `Cc1ccn(Cc2cncc(-c3cc4c(cc3F)N(C)C(=O)CC4)c2)c(=O)c1` [Example 20, 7-Fluoro-1-methyl-6-[5-(4-methyl-2-oxo-2H-pyridin-1-ylmethyl)-pyridin-3-yl]-3,4-dihydro-1H-quinolin-2-one] were 506 nM and 11.6 nM.
Taken in the same sequence, the figures for `CN1C(=O)CCc2cc(-c3cncc(Cn4cc(Cl)ccc4=O)c3)c(F)cc21` [Example 21, 6-[5-(5-Chloro-2-oxo-2H-pyridin-1-ylmethyl)-pyridin-3-yl]-7-fluoro-1-methyl-3,4-dihydro-1H-quinolin-2-one] were 569 nM and 15.1 nM.
